Experimental data as given in PubChem BioAssay AID364 (The Scripps Research Institute Molecular Screening Center, 2006).
The source made the active and inactive calls.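 How the source made its calls: active means concentration giving half-maximal inhibition at or below 20 micromolar; inactive means half-maximal concentration above 20 micromolar, or not dose tested.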

test system: Jurkat E6.1 viability, ATP luminescence, 48 h; test: cytotoxicity toward Jurkat T cells, primary screen, cell-based, Jurkat E6.1, NIH starter set (AID 364)

SMILES | CC50
COc1cccc(C2=CC(c3ccccc3)n3nnnc3N2)c1 (configuration not stated) | 1770 nM
Cc1ccc(NC(=O)CSc2nnc(-c3ccco3)c(-c3ccco3)n2)cc1 | 1710 nM
Nc1nc(Cl)nc2c1ncn2[C@H]1C[C@H](O)[C@@H](CO)O1 | 1810 nM
Cn1c(Cl)cnc1C1CC(=O)c2cc(Cl)ccc2O1 (configuration not stated) | 7300 nM
CCCCCOc1ccc(C(=O)NCC(=O)NCC(=O)OCC)cc1 | > 20000 nM (inactive)
Cc1cccc(-c2nnc3n2N=C(c2ccc(Br)cc2)CS3)c1 | > 20000 nM (inactive)
CC(=O)O[C@H]1C(=O)[C@]2(C)[C@H]([C@H](OC(=O)c3ccccc3)[C@]3(O)C[C@H](OC(=O)[C@H](O)[C@@H](NC(=O)c4ccccc4)c4ccccc4)C(C)=C1C3(C)C)[C@]1(OC(C)=O)CO[C@@H]1C[C@@H]2O | 43.4 nM
CC(=O)OC[C@H]1O[C@@H](n2ncc(=O)[nH]c2=O)[C@H](OC(C)=O)[C@@H]1OC(C)=O | > 20000 nM (inactive)
N#CC1=C2SCC(O)(c3ccccc3)N2C(=O)CC1c1ccccc1 (configuration not stated) | 806 nM
COc1cccc(Cn2c(NCc3ccco3)nc3c2c(=O)n(C)c(=O)n3C)c1 | 2550 nM
CCN(CC)c1ccc(-c2nn3c(-c4cccnc4)nnc3s2)cc1 | 3270 nM
CC[C@]1(O)C[C@@H]2CN(CCc3c([nH]c4ccccc34)[C@@](C(=O)OC)(c3cc4c(cc3OC)N(C)[C@H]3[C@@](O)(C(=O)OC)[C@H](OC(C)=O)[C@]5(CC)C=CCN6CC[C@]43[C@@H]65)C2)C1 | 13.6 nM
O=c1[nH]c(=O)n([C@H]2C[C@H](O)[C@@H](CO)O2)cc1F | 2730 nM
N#CC1=C(SCC(=O)c2ccc(Br)cc2)NC2=C(C(=O)CCC2)C1c1ccco1 (configuration not stated) | 3050 nM
COc1cc([C@@H]2c3cc4c(cc3[C@H](O)[C@H]3COC(=O)[C@H]23)OCO4)cc(OC)c1OC | 34.9 nM
N#CC1=C(N)NC(SCc2ccc(F)cc2)=C(C#N)C12CCCCC2 | 8190 nM
COc1ccc2c(c1OC)C(=O)N1c3ccccc3C(=O)N(c3ccccc3F)C21 (configuration not stated) | > 20000 nM (inactive)
CC1(c2ccccc2)NCCN2C(=O)CSC21 (configuration not stated) | > 20000 nM (inactive)
Cc1ccc(C(=O)CSC2=C(C#N)C(c3ccco3)C3=C(CCCC3=O)N2)cc1 (configuration not stated) | 2400 nM
COc1ccccc1-c1nnc2n1N=C(c1ccc(O)c(O)c1)CS2 | 58.2 nM
CCc1cn([C@H]2C[C@H](O)[C@@H](CO)O2)c(=O)[nH]c1=O | > 20000 nM (inactive)

SMILES | CC50
COC(=O)/C(=C1/Oc2cc(C)oc(=O)c2S1)C(F)(F)F | 2850 nM
C[C@H]1CCC/C=C/C2C[C@H](O)CC2[C@H](O)/C=C/C(=O)O1 (some centres not stated) | 368 nM
N#CC1=C(SCC(=O)c2ccccc2)NC2=C(C(=O)CCC2)C1c1ccco1 (configuration not stated) | 1280 nM
COc1cccc(N2CCN(c3ncnc4c3[nH]c3ccc(F)cc34)CC2C)c1 (configuration not stated) | 2270 nM
CC(NC(=O)Nc1nnc(C(F)(F)F)s1)(C(F)(F)F)C(F)(F)F | 2590 nM
CC[C@H]1CN2CCc3cc(OC)c(OC)cc3[C@@H]2C[C@@H]1C[C@H]1NCCc2cc(OC)c(OC)cc21 | 58.2 nM
CC(C)NCc1c(O)c(Br)cc2oc3c(c12)CCCC3 | > 20000 nM (inactive)
N=c1c2c(-c3ccccc3)c(-c3ccccc3)n(Cc3ccccc3)c2ncn1CCCn1ccnc1 | 19900 nM
COc1cccc2c(=O)c(SC(F)(F)C(F)C(F)(F)F)c(C)[nH]c12 (configuration not stated) | 5130 nM
CO[C@H]1C[C@@H]2CC[C@@H](C)[C@@](O)(O2)C(=O)C(=O)N2CCCC[C@H]2C(=O)O[C@H]([C@H](C)C[C@@H]2CC[C@@H](O)[C@H](OC)C2)CC(=O)[C@H](C)C=C(C)[C@@H](O)[C@@H](OC)C(=O)[C@H](C)C[C@H](C)C=CC=CC=C1C | > 20000 nM (inactive)
COc1cc(C2C(C#N)=C(N)Oc3cc(N)ccc32)cc(OC)c1OC (configuration not stated) | 326 nM
c1ccc2c(c1)CCN(c1ncnc3c1[nH]c1ccccc13)C2 | 1560 nM
Cc1ccc2nc(NCc3ccccc3)[nH]c2c1 | 3240 nM
COc1cccc2c1C(=O)c1c(O)c3c(c(O)c1C2=O)C[C@@](O)(C(=O)CO)C[C@@H]3O[C@H]1C[C@H](N)[C@H](O)[C@H](C)O1 | 261 nM
COc1ccc(OC)c(NS(=O)(=O)c2ccc(N3CCCC3=O)cc2)c1 | 193 nM
COc1ccc(CCn2c(=N)c(C#N)cc3c(=O)n4ccccc4nc32)cc1 | > 20000 nM (inactive)
COc1cccc(NC(=O)CSC2=C(C#N)C(c3ccco3)C3=C(CCCC3=O)N2)c1 (configuration not stated) | 4730 nM
COC(=O)Nc1nc2ccc(C(=O)c3ccccc3)cc2[nH]1 | 229 nM
CCCOc1ccc2nc(NC(=O)OC)[nH]c2c1 | 178 nM
CC(=O)O[C@@]12CO[C@@H]1C[C@H](O)[C@@]1(C)C(=O)[C@H](O)C3=C(C)[C@@H](OC(=O)[C@H](O)[C@@H](NC(=O)OC(C)(C)C)c4ccccc4)C[C@](O)([C@@H](OC(=O)c4ccccc4)[C@H]21)C3(C)C | 55.6 nM
COc1ccc2c(c1OC)C(=O)O[C@@H]2[C@H]1c2c(cc3c(c2OC)OCO3)CCN1C | > 20000 nM (inactive)

SMILES | CC50
COc1cccc2c1C(=O)c1c(O)c3c(c(O)c1C2=O)C[C@@](O)(C(C)=O)C[C@@H]3O[C@H]1C[C@H](N)[C@H](O)[C@H](C)O1 | 151 nM
COc1ccc(C2=Nn3c(nnc3-c3ccccc3)SC2)cc1OC | 5630 nM
CCCSc1ccc2nc(NC(=O)OC)[nH]c2c1 | 390 nM
c1cc2c(cc1C1=Nn3c(nnc3C3CCCCC3)SC1)OCO2 | 6930 nM
COC(=O)Nc1nc2ccc(Sc3ccccc3)cc2[nH]1 | 574 nM
COc1ccc(C(=O)C(CN2CCCC2)c2ccccc2)cc1 (configuration not stated) | 7210 nM
CCOc1ccc(C2=Nn3c(nnc3-c3ccccc3OC)SC2)cc1 | 26.7 nM
CC(=O)/C(C#N)=C1\NC(=O)C(Cc2ccccc2)S1 (configuration not stated) | > 20000 nM (inactive)
CCC(NC(=O)Nc1nnc(C(F)(F)F)s1)(C(F)(F)F)C(F)(F)F | 2220 nM
CCc1nc(N)nc(N)c1-c1ccc(Cl)cc1 | 2600 nM
Clc1ccc(-n2ncc3c(NCc4ccco4)ncnc32)cc1 | 3880 nM
CCOC(=O)CSC1=C(C#N)C(c2ccc3c(c2)OCO3)CC(=O)N1 (configuration not stated) | 6580 nM
CC(=O)/C(C#N)=C1\NC(=O)C(Cc2ccccc2Cl)S1 (configuration not stated) | > 20000 nM (inactive)
CC[C@]1(O)CC2CN(CCc3c([nH]c4ccccc34)[C@@](C(=O)OC)(c3cc4c(cc3OC)N(C=O)[C@H]3[C@@](O)(C(=O)OC)[C@H](OC(C)=O)[C@]5(CC)C=CCN6CC[C@]43[C@@H]65)C2)C1 (some centres not stated) | < 3 nM
COc1ccc(Nc2cc(C)nc(-n3nc(C)cc3C)n2)cc1 | 188 nM
Fc1ccc2[nH]c3c(N4CCN(Cc5ccc6c(c5)OCO6)CC4)ncnc3c2c1 | 2710 nM
COC(=O)CSc1nnc2n(-c3ccc(OC)cc3)c(=O)c3c4c(sc3n12)CCCCC4 | > 20000 nM (inactive)
COc1ccc(C2=Nn3c(nnc3-c3ccccn3)SC2)cc1 | 4780 nM
c1coc(CNc2ncnc3ccccc23)c1 | 2400 nM
N#CC1=C(SCC(=O)c2ccc(Cl)cc2)NC2=C(C(=O)CCC2)C1c1ccco1 (configuration not stated) | 2790 nM
